Laboratory results published in patent publication US11077120B2, “Prostaglandin receptor EP2 antagonists, derivatives, compositions, and uses related thereto” (Emory University, priority 2014, dated 2021).
Read-outs that look alike come from different tables or passages of the source.

Experiments:
human EP2 receptors = biological target: T1, human EP2 receptors (Homo sapiens, UniProt P43116); test: cell-based cAMP TR-FRET assay, rightward shift of PGE2 concentration response curve (Schild KB), EP2; conditions: for mechanism of antagonism of EP2: Schild regression analysis
T1 construct: expressed in transfected cells
Experimental: KB value indicates the antagonist concentration required for a twofold rightward shift in the PGE2 dose-response curve. Thus, a lower KB value indicates a higher inhibitory potency.
(§1) The synthesis was carried out starting from commercially available 2-methyl indole or 2-trifluoromethyl indoles (11a-c), which on treatment with bromoacetonitrile provided intermediates (12a-c), which then were subjected to lithium aluminum hydride to reduce cyanide to amines. […] Synthesized derivatives were tested by using a cAMP-derived TR-FRET assay, at single concentration (1 μM) to observe a rightward shift of PGE2 (an EP2 agonist) concentration response curve in a C6G cell line that overexpresses human EP2 receptors.
A lower KB value indicates a higher inhibitory potency.
(§2) Intracellular cAMP was measured with a cell-based homogeneous time-resolved fluorescence resonance energy transfer (TR-FRET) method (Cisbio Bioassays). […] Endogenous cAMP produced by cells competes with labeled cAMP for binding to the cAMP antibody and thus reduces the FRET signal. Cells stably expressing human DP1, EP2, EP4, or IP receptors were seeded into 384-well plates in 30 μl complete medium (4,000 cells/well) and grown overnight. The medium was carefully withdrawn and 10 μl Hanks' Buffered Salt Solution (HBSS) (Hyclone) containing 20 μM rolipram was added into the wells to block phosphodiesterases. The cells were incubated at room temperature for 0.5-1 h and then treated with vehicle or test compound for 10 min before addition of increasing concentrations of appropriate agonist: BW245C for DP1, PGE2 for EP2 and EP4, or iloprost for IP. The cells were incubated at room temperature for 40 min, then lysed in 10 μl lysis buffer containing the FRET acceptor cAMP-d2 and 1 min later another 10 μl lysis buffer with anti-cAMP-Cryptate was added. After 60-90 min incubation at room temperature, the FRET signal was measured by an Envision 2103 Multilabel Plate Reader (PerkinElmer Life Sciences) with a laser excitation at 337 nm and dual emissions at 665 nm and 590 nm for d2 and Cryptate (50 s delay), respectively. The FRET signal was expressed as: F665/F590×10^4.

human DP1 receptors = biological target: T2, human DP1 receptors (Homo sapiens, UniProt Q13258); test: cell-based cAMP TR-FRET assay, DP1 (agonist BW245C); conditions: for selectivity against DP1: EP2 over DP1
T2 construct: expressed in transfected cells
T2 sequence (Q13258 1-359): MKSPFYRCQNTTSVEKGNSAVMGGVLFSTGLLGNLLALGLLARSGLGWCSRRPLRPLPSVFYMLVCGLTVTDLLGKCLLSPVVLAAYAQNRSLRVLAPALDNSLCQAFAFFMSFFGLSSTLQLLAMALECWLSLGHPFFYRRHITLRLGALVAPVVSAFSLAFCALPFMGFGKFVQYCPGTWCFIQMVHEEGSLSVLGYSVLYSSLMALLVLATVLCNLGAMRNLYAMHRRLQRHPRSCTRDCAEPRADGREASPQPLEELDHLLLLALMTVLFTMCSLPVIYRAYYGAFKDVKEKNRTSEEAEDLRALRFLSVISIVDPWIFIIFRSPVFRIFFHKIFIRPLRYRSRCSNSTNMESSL
Experimental: as §1
as §2, with “After 60-90 min incubation at room temperature, the FRET signal was measured by an Envision 2103 Multilabel Plate Reader (PerkinElmer Life Sciences) with a laser excitation at 337 nm and dual emissions at 665 nm and 590 nm for d2 and Cryptate (50 s delay), respectively.” left out

human IP receptors = biological target: T3, human IP receptors (Homo sapiens, UniProt P43119); test: cell-based cAMP TR-FRET assay, IP (agonist iloprost); conditions: for potency estimated from few doses / Selective Index (IP/EP2): Table 2; for potency estimated from few doses: extrapolated Schild KB from single concentration of 10 μM
T3 construct: expressed in transfected cells
Experimental: (§3) These derivatives were selected for testing against EP4 and IP receptors. Cell lines were created that overexpress EP4 receptors, or IP receptors on C6-glioma cells. A cAMP-derived TR-FRET assay was developed using agonists PGE2 (for EP4) and iloprost (for IP), similar to EP2 assay.
as §2

human EP4 receptors = biological target: T4, human EP4 receptors (Homo sapiens, UniProt P35408); test: cell-based cAMP TR-FRET assay, EP4 (agonist PGE2); conditions: for potency estimated from few doses / Selective Index EP4/EP2: Table 2; for potency estimated from few doses: extrapolated Schild KB from single concentration of 10 μM
T4 construct: expressed in transfected cells
Experimental: as §3, §2

C6-glioma cells = conditions: rat
Experimental: CC50 are average one measurement run in triplicate.
Several of compounds were examined against EP4 and IP receptors at single concentration of 10 μM.

[1] = Table 1, Schild KB from single antagonist concentration 1 μM, average of 2-3 measurements in duplicate, read-out: EP2 KB
[2] = Table 2, average of 2-3 independent experiments in duplicate, read-out: KB EP2

T4 sequence (P35408 whole entry): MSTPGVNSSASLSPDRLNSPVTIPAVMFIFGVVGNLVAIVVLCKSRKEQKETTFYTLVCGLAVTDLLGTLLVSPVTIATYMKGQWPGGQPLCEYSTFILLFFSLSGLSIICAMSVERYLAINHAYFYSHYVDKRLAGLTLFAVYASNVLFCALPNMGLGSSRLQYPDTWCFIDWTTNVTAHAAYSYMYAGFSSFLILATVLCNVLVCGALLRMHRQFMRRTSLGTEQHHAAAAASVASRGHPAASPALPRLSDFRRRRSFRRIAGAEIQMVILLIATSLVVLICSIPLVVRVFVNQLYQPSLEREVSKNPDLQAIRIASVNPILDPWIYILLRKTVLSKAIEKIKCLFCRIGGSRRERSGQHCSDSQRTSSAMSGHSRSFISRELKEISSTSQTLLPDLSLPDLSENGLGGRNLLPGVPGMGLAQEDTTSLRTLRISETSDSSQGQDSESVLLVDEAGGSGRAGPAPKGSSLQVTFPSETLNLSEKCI
T1 sequence (P43116 whole entry): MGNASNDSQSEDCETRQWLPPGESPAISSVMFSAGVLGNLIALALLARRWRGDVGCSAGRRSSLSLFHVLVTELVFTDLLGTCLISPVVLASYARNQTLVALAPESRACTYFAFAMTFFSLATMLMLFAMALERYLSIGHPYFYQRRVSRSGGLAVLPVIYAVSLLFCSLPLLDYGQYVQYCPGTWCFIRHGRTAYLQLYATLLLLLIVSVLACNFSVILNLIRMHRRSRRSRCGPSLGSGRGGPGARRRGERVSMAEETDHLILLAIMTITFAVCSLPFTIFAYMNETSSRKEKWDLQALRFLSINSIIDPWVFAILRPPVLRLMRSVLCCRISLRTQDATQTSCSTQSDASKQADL
T3 sequence (P43119 whole entry): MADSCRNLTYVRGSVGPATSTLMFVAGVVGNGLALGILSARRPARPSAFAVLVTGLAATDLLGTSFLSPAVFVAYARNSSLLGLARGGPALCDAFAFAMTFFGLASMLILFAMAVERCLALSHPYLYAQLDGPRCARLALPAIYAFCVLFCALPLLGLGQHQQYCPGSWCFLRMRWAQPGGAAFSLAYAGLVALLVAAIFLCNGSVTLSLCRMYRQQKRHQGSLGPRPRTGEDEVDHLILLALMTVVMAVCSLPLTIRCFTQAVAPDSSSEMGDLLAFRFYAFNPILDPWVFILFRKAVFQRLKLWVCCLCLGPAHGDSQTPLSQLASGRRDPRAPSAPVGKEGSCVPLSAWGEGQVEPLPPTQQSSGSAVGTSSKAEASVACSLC

SMILES | Kb (human EP2 receptors; Table 6, read-out: EP2 KB) | Kb (human DP1 receptors; Table 6, read-out: DP1 KB) | potency estimated from few doses (human IP receptors) | potency estimated from few doses (human EP4 receptors) | CC50 (C6-glioma cells) | other results
COc1ccc(C(=O)NCCn2c(C)cc3ccccc32)cc1OC [Compound 6b] | 0.0267 µM | 1.35 µM |  |  |  | Kb (human EP2 receptors; [1]): 0.0223 µM
Cc1cc2ccccc2n1CCNC(=O)c1ccc(N(C)C)cc1 [Compound 6e, 4-(Dimethylamino)-N-(2-(2-methyl-1H-indol-1-yl)ethyl)benzamide] |  |  | 4.7 µM | 51 µM | 310 µM | Kb (human EP2 receptors; [1]): 0.0098 µM; Kb (human DP1 receptors; Table 2, read-out: KB DP1): 6.43 µM
CCN(CC)c1ccc(C(=O)NCCn2c(C)cc3ccccc32)cc1 [Compound 6f, 4-(Diethylamino)-N-(2-(2-methyl-1H-indol-1-yl)ethyl)benzamide] |  |  | 8 µM | 31.3 µM | 320 µM | fold improved/higher EP2 potency in comparison to 6b (human EP2 receptors): ~8 fold; mechanism of antagonism of EP2 (human EP2 receptors): competitive; Kb (human EP2 receptors; [2]): 0.0027 µM; Kb (human EP2 receptors; single concentration values, read-out: EP2 potency (Schild KB)): ~0.01 µM; selectivity against the IP receptor (human IP receptors; EP2 over IP): ~3000 fold; Selective Index (IP/EP2) (human IP receptors): 2,960; Selective Index EP4/EP2 (human EP4 receptors): 11,590; Therapeutic Index (CC50/EP2 KB) (C6-glioma cells): 118,520; selectivity against DP1 (human DP1 receptors): > 1200 fold; Selective Index (DP1/EP2) (human DP1 receptors; Table 2): 1,220; Kb (human DP1 receptors; Table 2, read-out: KB DP1): 3.19 µM
CCCN(CCC)c1ccc(C(=O)NCCn2c(C)cc3ccccc32)cc1 [Compound 6g] |  |  | 1.12 µM | 15.5 µM | 332 µM | Selective Index (IP/EP2) (human IP receptors): 95; Selective Index EP4/EP2 (human EP4 receptors): 1320; Therapeutic Index (CC50/EP2 KB) (C6-glioma cells): 28,130; Selective Index (DP1/EP2) (human DP1 receptors; Table 2): 298
Cc1cc2ccccc2n1CCNC(=O)c1ccc(N2CCCC2)cc1 [Compound 7j, N-(2-(2-Methyl-1H-indol-1-yl)ethyl)-4-(pyrrolidin-1-yl)benzamide] |  |  | 14.2 µM | 28.7 µM | 337 µM | Kb (human EP2 receptors; [2]): 0.0247 µM; Selective Index (IP/EP2) (human IP receptors): 570; Selective Index EP4/EP2 (human EP4 receptors): 1,160; Therapeutic Index (CC50/EP2 KB) (C6-glioma cells): 16,120; selectivity against DP1 (human DP1 receptors): 516 fold; Selective Index (DP1/EP2) (human DP1 receptors; Table 2): >516; Kb (human DP1 receptors; Table 2, read-out: KB DP1): > 10 µM
Cc1cc2ccccc2n1CCNC(=O)c1ccc(N2CCCCC2)cc1 [Compound 7k, N-(2-(2-Methyl-1H-indol-1-yl)ethyl)-4-(piperidin-1-yl)benzamide] |  |  | 3.4 µM | 30.2 µM | 315 µM | fold improved/higher EP2 potency in comparison to 6b (human EP2 receptors): about 2.3 fold; Kb (human EP2 receptors; [1]): 0.0094 µM; Selective Index (IP/EP2) (human IP receptors): 360; Selective Index EP4/EP2 (human EP4 receptors): 3,210; Therapeutic Index (CC50/EP2 KB) (C6-glioma cells): 33,510; Selective Index (DP1/EP2) (human DP1 receptors; Table 2): 273; Kb (human DP1 receptors; Table 2, read-out: KB DP1): 2.57 µM
Cc1cc2ccccc2n1CCNC(=O)c1ccc(N2CCCCCC2)cc1 [Compound 7o] |  |  | 8.5 µM | 23.6 µM | 327 µM | Selective Index (IP/EP2) (human IP receptors): 375; Selective Index EP4/EP2 (human EP4 receptors): 1,045; Therapeutic Index (CC50/EP2 KB) (C6-glioma cells): 14,470; Selective Index (DP1/EP2) (human DP1 receptors; Table 2): 342
Cc1cc2ccccc2n1CCNC(=O)c1ccc(N2CCOCC2)cc1 [Compound 7p, N-(2-(2-Methyl-1H-indol-1-yl)ethyl)-4-morpholinobenzamide] |  |  | 1.98 µM | 21 µM | 289 µM | fold improved/higher EP2 potency in comparison to 6b (human EP2 receptors): about 2.3 fold; mechanism of antagonism of EP2 (human EP2 receptors): competitive; Kb (human EP2 receptors; [1]): 0.0096 µM; Selective Index (IP/EP2) (human IP receptors): 206; Selective Index EP4/EP2 (human EP4 receptors): 2,190; Therapeutic Index (CC50/EP2 KB) (C6-glioma cells): 30,100; Selective Index (DP1/EP2) (human DP1 receptors; Table 2): 533; Kb (human DP1 receptors; Table 2, read-out: KB DP1): 5.21 µM
Cc1cc2ccccc2n1CCNC(=O)c1ccc(N2CCN(C)CC2)c(F)c1 [Compound 7u] |  |  | 64 µM | 4.76 µM | 300 µM | Selective Index (IP/EP2) (human IP receptors): 1,420; selectivity over EP4 (human EP4 receptors; EP2 over EP4): 100 fold; Selective Index EP4/EP2 (human EP4 receptors): 106; Therapeutic Index (CC50/EP2 KB) (C6-glioma cells): 6,660; Selective Index (DP1/EP2) (human DP1 receptors; Table 2): 22
Cc1cc2ccccc2n1CCNC(=O)c1ccc(N2CCC(O)CC2)cc1 [Compound 7w] |  |  | 18.1 µM | 70.3 µM | 163 µM | Selective Index (IP/EP2) (human IP receptors): 675; Selective Index EP4/EP2 (human EP4 receptors): 2,629; Therapeutic Index (CC50/EP2 KB) (C6-glioma cells): 6,082; concentration showing an effect on cell viability (C6-glioma cells): > 100 µM; Selective Index (DP1/EP2) (human DP1 receptors; Table 2): 172
Cc1[nH]c2ccccc2c1CCNC(=O)c1ccc(N(C)C)cc1 [Compound 8z] |  |  | 63.1 µM | 16.4 µM | 320 µM | 
Cc1[nH]c2ccccc2c1CCNC(=O)c1ccc(N2CCOCC2)cc1 [Compound 9c] |  |  |  |  | 311 µM | 
Cc1cc2ccccc2n1CCNC(=O)c1cc(-c2ccccc2)no1 [TG7-242] | 0.0295 µM |  |  |  |  | DP1 KB (human DP1 receptors; Table 6): Inactive
Cc1cc2ccccc2n1CCNC(=O)c1cc(-c2ccc(F)cc2)n[nH]1 [TG7-245] | 0.0227 µM | 140 µM |  |  |  | 
Cc1cc2ccccc2n1C1CCCN(C(=O)c2ccc(N3CCOCC3)cc2)C1 (stereo not shown) [TG7-292] | 1.79 µM |  |  |  |  | DP1 KB (human DP1 receptors; Table 6): Inactive
Cc1cc2ccccc2n1CCNC(=O)c1ccc(N=[N+]=[N-])cc1 [TG7-297] | 0.0894 µM | 1.89 µM |  |  |  | 
Cc1cc2cc(Br)ccc2n1CCNC(=O)c1ccc(N2CCOCC2)cc1 [TG7-300] | 0.247 µM | 18.9 µM |  |  |  | 
Cc1cc2ccccc2n1CCNC(=O)c1ccc(OCCO)c(OCCO)c1 [TG8-3] | 0.271 µM | 62.9 µM |  |  |  | 
Cc1cc2ccccc2n1CCNC(=O)c1ccc(OCCO)cc1 [TG8-12] | 0.133 µM | 2.74 µM |  |  |  | 
CCOC(=O)C1CCN(c2ccc(C(=O)NCCn3c(C(F)(F)F)cc4ccccc43)cc2)CC1 [TG8-42] | 2.74 µM | 3.24 µM |  |  |  | 
O=C(NCCn1c(C(F)(F)F)cc2ccccc21)c1ccc(N2CCC(C(=O)O)CC2)cc1 [TG8-46] | 0.413 µM | 1.06 µM |  |  |  | 
O=C(NCCn1c(C(F)(F)F)cc2ccccc21)c1ccc(-c2nnn[nH]2)cc1 [TG8-47] | 1.11 µM | 0.795 µM |  |  |  | 
C#Cc1ccc(C(=O)NCCn2c(C)cc3ccccc32)cc1 [TG8-52] | 0.0775 µM | 0.609 µM |  |  |  | 
Cc1cc2ccccc2n1CCNC(=O)c1ccc(-c2cn(COCc3ccccc3)nn2)cc1 [TG8-54] | 0.164 µM | 3.39 µM |  |  |  | 
Cc1cc2ccccc2n1CCNC(=O)c1ccc(-c2cn(Cc3ccccc3)nn2)cc1 [TG8-55] | 0.305 µM | 6.96 µM |  |  |  | 
Cc1cc2ccccc2n1CCNC(=O)c1cnc(N2CCC(CO)CC2)nc1 [TG8-59] | 0.159 µM | 5.85 µM |  |  |  | 
Cc1cc2ccccc2n1CCNC(=O)c1ccc(-n2cc(CO)nn2)cc1 [TG8-60] | 0.0282 µM | 2.42 µM |  |  |  | 
Cc1cc2ccccc2n1CCNC(=O)c1ccc(OCCN(C)C)c(OCCN(C)C)c1 [TG8-76-2] |  |  |  |  |  | EP2 KB (human EP2 receptors; Table 6): Inactive
